Data set [1] concerns IMR90 fibroblasts. Put plainly: Relative viability (CellTiterGlo) of senescent IMR90 fibroblasts. It is filed as cell-based, human. To be noted: at IL-6 reducing concentrations. As to the method: (§1) In the assay, IMR90 fibroblasts were plated at a density of 3E6 cells in a T175 tissue culture (TC)-treated flask. The flasks were placed into a tissue culture incubator and cells were allowed to adhere to the bottom of the wells for 24 hours. After cell adherence, the TC-treated flasks containing the cells were placed into a MultiRad225 X-ray irradiator, where cells were exposed to 10 grays (Gy) of ionizing […] irradiation. After irradiation, flasks were returned to the tissue culture incubator for 7 days, refreshing the cell media every 3 days.
(§2) After the 7-day incubation period that allowed full senescence transformation, cells were detached from the TC-treated flasks using 0.25% trypsin-EDTA solution. Cells were then split, and two experiments were conducted simultaneously: (1) verification of senescence induction via β-galactosidase staining (a senescent cell marker) and (2) analysis of senomorphic activity of compounds.
(§3) Cells also were measured for relative viability to generate cytotoxicity curves associated with the varying concentrations of compounds. […] LD50 values were measured by normalizing luminescence intensity to the lowest drug concentration. GraphPad Prism was used to plot and calculate LD50 values from the cytotoxic kill curves. Curves were fit to a non-linear regression model, with compound concentration vs. response and variable slope (four parameters).
On the technique in general: Cellular ATP, detected with luciferase, serves as a proxy for viable cell number.

Test in data set [2]: as above
The format is cell-based, human. The note with it: human, senescent imr90 fibroblasts. As to the method: as §1, §2, §3

Data set [3] relates to IMR90 fibroblasts, IL-6. Put plainly: Senomorphic activity: IL-6 reduction (ELISA) in senescent IMR90 fibroblasts. It is filed as cell-based, human. To be noted: for IL-6 reduction potency compared with pacritinib: compared with control drug pacritinib. The method, then: Senomorphic activity of compounds were assessed by determining whether the compounds could inhibit the senescence-associated secretory phenotype (SASP) in senescent cells, which is associated with overproduction and secretion of pro-inflammatory factors. Although many of these factors are associated primarily with macrophages and monocytes, they can also be made by a variety of senescent and activated cell types, such as fibroblasts. Specifically, IMR90 fibroblasts are known to overproduce these factors, especially when rendered senescent.
as §1, §2
For verification of senescence induction, 2.5E4 cells were plated in TC-treated 6-well plates. After overnight adherence to the TC-plates, cells were fixed and stained for β-galactosidase accumulation following the manufacturer's standard protocol (e.g., Millipore Sigma, Senescence Cells Histochemical Staining Kit, CS0030-1KT). Brightfield microscopy was used to image the cells and ImageJ software was used to calculate the percentage of senescent cells per well. Non-irradiated IM90 fibroblasts were used as a non-senescent control.
To test the senomorphic activity of compounds, 1E4 cells were plated in 96-well plates. After overnight adherence to the 96-well plates, compounds were added in half-log dilutions to the wells containing the cells. Compounds that were effective inhibitors of JAK2 and were not effective inhibitors of JAK1 were assayed (JAK2 selective inhibitors). Twenty-four hours after compounds were added, cell culture media was collected and analyzed by various enzyme linked immunosorbent assays (ELISAs) for the expression of SASP-associated cytokines, including IL-6, TGF-beta, and TNF-alpha. The manufacturer's protocol was followed for ELISA analysis (e.g., Abcam, Human IL-6 ELISA kit, ab178013). Cytokine levels were compared to untreated controls and reduction of cytokine production was plotted and calculated using GraphPad Prism analysis software.
(An ELISA detects its analyte on a solid surface through an enzyme-linked reagent.)

Data set [4] has as its system RET-M918T. The note with it: control inhibitor; Tracer 236 at 10 nM; cited from earlier work.
Data set [5] relates to RET-V804M. The note with it: control inhibitor; Tracer 236 at 5 nM; cited from earlier work.
In data set [6] the test system is TXK. To be noted: control inhibitor; Tyr 06; ATP 100 uM; cited from earlier work.
For data set [7], the system named is TNK2 (ACK). To be noted: control inhibitor; Tracer 236 at 30 nM; cited from earlier work.
The test system of data set [8] is EPHA5. To be noted: control inhibitor; Tyr 01; ATP 150 uM; cited from earlier work.
Data set [9] concerns RET. The note with it: control inhibitor; Tyr 02; ATP 10 uM; cited from earlier work.
Data set [10] relates to PTK2B (FAK2). To be noted: control inhibitor; Tyr 01; ATP 5 uM; cited from earlier work.
Data set [11] deals with ABL1 F317L. To be noted: control inhibitor; Tyr 02; ATP 10 μM; cited from earlier work.
Data set [12] has as its system ROS1. The note with it: control inhibitor; Tyr 01; ATP 50 uM; cited from earlier work.
Data set [13] relates to EPHB2. The note with it: control inhibitor; Tyr 02; ATP 75 uM; cited from earlier work.
Data set [14] deals with RET-V804E. The note with it: control inhibitor; Tyr 04; ATP 50 uM; cited from earlier work.
For data set [15], the system named is EPHA1. The note with it: control inhibitor; Tyr02; ATP 25 uM; cited from earlier work.
Data set [16] concerns SRC. The note with it: control inhibitor; Tyr 02; ATP 50 uM; cited from earlier work.
For data set [17], the system named is SRC-N1. The note with it: control inhibitor; Tyr 02; ATP 50 uM; cited from earlier work.
The subject of data set [18] is LCK. To be noted: control inhibitor; Tyr 02; ATP 50 uM; cited from earlier work.
Data set [19] addresses ABL1(wt) (Homo sapiens, UniProt P00519). To be noted: control inhibitor; Tyr 02; ATP 10 μM; cited from earlier work.
In data set [20] the test system is BTK. The note with it: control inhibitor; Tyr 01; ATP 25 uM; cited from earlier work.
Data set [21] has as its system ABL2 (Arg). The note with it: control inhibitor; Tyr02; ATP 25 uM; cited from earlier work.
In data set [22] the test system is TEC. To be noted: control inhibitor; Tracer 178 at 1 nM; cited from earlier work.
Data set [23] relates to DDR2-T654M. The note with it: control inhibitor; Tracer 178 at 100 nM; cited from earlier work.
Data set [24] concerns JAK2. The note with it: cited from earlier work.

Where a name gives a salt, the structure may show the parent alone.

Chain of ABL1(wt) (P00519 with tags, fused parts or gaps): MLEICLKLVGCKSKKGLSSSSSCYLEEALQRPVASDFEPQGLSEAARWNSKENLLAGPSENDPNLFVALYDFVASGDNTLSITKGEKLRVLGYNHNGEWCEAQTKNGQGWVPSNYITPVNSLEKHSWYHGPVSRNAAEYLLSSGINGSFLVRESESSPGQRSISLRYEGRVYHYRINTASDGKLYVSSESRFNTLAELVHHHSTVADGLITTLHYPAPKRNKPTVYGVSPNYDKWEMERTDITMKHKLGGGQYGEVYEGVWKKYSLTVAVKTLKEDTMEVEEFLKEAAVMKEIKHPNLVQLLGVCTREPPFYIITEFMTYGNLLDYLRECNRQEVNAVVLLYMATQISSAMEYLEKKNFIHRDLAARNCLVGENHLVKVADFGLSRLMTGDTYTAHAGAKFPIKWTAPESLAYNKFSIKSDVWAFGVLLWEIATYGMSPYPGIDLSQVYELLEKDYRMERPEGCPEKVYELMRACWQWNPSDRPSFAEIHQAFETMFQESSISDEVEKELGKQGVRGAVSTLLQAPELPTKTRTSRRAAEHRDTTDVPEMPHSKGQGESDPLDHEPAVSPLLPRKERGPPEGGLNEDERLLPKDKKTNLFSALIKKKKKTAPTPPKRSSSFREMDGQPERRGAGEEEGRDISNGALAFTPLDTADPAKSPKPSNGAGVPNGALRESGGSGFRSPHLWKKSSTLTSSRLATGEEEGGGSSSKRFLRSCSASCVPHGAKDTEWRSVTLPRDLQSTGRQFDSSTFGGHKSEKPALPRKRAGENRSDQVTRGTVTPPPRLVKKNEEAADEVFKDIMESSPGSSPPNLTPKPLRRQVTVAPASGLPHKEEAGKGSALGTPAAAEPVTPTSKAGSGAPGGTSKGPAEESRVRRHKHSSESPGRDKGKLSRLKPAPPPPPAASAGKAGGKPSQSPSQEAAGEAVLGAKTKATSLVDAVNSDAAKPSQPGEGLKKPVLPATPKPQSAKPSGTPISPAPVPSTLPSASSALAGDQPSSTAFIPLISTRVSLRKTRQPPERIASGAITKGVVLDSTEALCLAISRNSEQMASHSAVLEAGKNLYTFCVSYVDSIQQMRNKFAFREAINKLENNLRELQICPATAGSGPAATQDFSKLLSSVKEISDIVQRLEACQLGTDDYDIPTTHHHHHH

For the molecule `Cc1ccc(Nc2ncc3cccc(-c4ccc(F)cc4OC(C)C)c3n2)cc1N` [Cmpd51, N1-(8-(4-fluoro-2-isopropoxyphenyl)quinazolin-2-yl)-4-methylbenzene-1,3-diamine hydrochloride], the “cell toxicity (in words)” value in [1] was “without cell toxicity”. Further, the viability (usually a per cent measure of how many cells are alive, often set against a control) in [2] (at 0.4 nM and 1250 nM) came to 100%. In [3], the “IL-6 reduction (in words)” value was “potent IL-6 reduction at sub-toxic drug levels” and the “IL-6 reduction potency compared with pacritinib” value is given as “more potent than the control drug pacritinib”. Moreover, the inhibition at 0.0004 µM in data set [3] (Homo sapiens, IMR-90, 0.4 nM, 24 hours, read-out: IL-6 production reduction) was found to be 67.5%. In [3] (Homo sapiens, IMR-90, 1250 nM, 24 hours, read-out: IL-6 production reduction), the inhibition at 1.25 µM stood at 71.6%.
Consider `C=CC(=O)Nc1cc(Nc2ncc3cccc(-c4ccc(F)cc4OC(C)C)c3n2)ccc1C` [Cmpd53, N-(5-((8-(4-fluoro-2-isopropoxyphenyl)quinazolin-2-yl)amino)-2-methylphenyl)acrylamide], for which the “cell toxicity (in words)” value in data set [1] is reported as “without cell toxicity”. For the same molecule, in [2] (at 0.8 nM and 800 nM), the viability is 100%. In [3], the “IL-6 reduction (in words)” value is listed as “potent IL-6 reduction at sub-toxic drug levels” and the “IL-6 reduction potency compared with pacritinib” value was “more potent than the control drug pacritinib”. In addition, the inhibition at 0.0008 µM in data set [3] (Homo sapiens, IMR-90, 0.8 nM, 24 hours, read-out: IL-6 production reduction) was found to be 82.2%. In addition, in [3] (Homo sapiens, IMR-90, 800 nM, 24 hours, read-out: IL-6 production reduction), the inhibition at 0.8 µM was 82.9%.
Consider `CN[C@@H]1C[C@H]2O[C@@](C)([C@@H]1OC)n1c3ccccc3c3c4c(c5c6ccccc6n2c5c31)C(=O)NC4` [Staurosporine], for which the IC50 (usually the point on the concentration scale where inhibition reaches its midpoint) in [4] was 3.8 nM; in [5], 1.02 nM; in data set [6], […]; in [7], […]; in data set [8] it was […]; in data set [9] it was […]. The IC50 in [10] was 12 nM; in [11] it was 214 nM; in data set [12], […]; in [13] it was […]; in data set [14], 2.29 nM; in data set [15], […].
In the case of `COc1cc2ncnc(Nc3cccc(Cl)c3)c2cc1OC` [Tyrphostin AG1478], the IC50 in [16] is 1650 nM; in [17], 1050 nM; in data set [18], 631 nM; in [19] it was 326 nM; in [20] it was 1800 nM; in data set [21], 731 nM.
In the case of `Cc1nc(Nc2ncc(C(=O)Nc3c(C)cccc3Cl)s2)cc(N2CCN(CCO)CC2)n1` [dasatinib], the figures for the IC50 in [22] and in data set [23] were […] and 139 nM, respectively.
For `N#CC[C@H](C1CCCC1)n1cc(-c2ncnc3[nH]ccc23)cn1` [ruxolitinib], the JAK2 selectivity entry in data set [24] is “not selective inhibitors of JAK2 PK”.
For the molecule `C[C@@H]1CCN(C(=O)CC#N)C[C@@H]1N(C)c1ncnc2[nH]ccc12` [tofacitinib], in [24], the JAK2 selectivity entry is on record as “not selective inhibitors of JAK2 PK”.

The values above are taken from patent US20260297035A1, “PROTEIN KINASE INHIBITORS AND USES THEREOF” (DELiver Therapeutics, Inc., priority 2023, published 2026).
